Legend:
βAPP = βAPP levels in brain cortex and CSF of transgenic mice; type: in vivo; conditions: 2.5 mg/kg i.p., once daily for 3 weeks
APP = experiment: rate of APP synthesis in SH-SY5Y cells (35S labelling, immunoprecipitation); type: cell-based, human; conditions: 10 μM, 16 hours
Experimental: 8×10^6 SHSY-5Y cells were plated on 100 mm dishes with DMEM containing 10% FBS. After 36 hours, the culture medium was replaced with DMEM containing 0.5% FBS. The cells were incubated with low serum medium for 1 hour. Thereafter, the medium was replaced with fresh low serum medium with and without 10 μM of phenserine for 16 hours.
After treatment with methionine and cystine free medium, 2 ml of ^35S-labeled DMEM ([…]) with and without phenserine (10 μM) were added and incubated for 10 minutes. Thereafter, the labeled medium was carefully removed and the cells were suspended in lysis buffer containing with protease inhibitors and frozen at −80° C. for use in the immunoprecipitation assay.
APP protein was immunoprecipitated from 300 μig of total protein in each sample using the polyclonal antibody O443, which recognizes a 20 amino acid sequence in the carboxy terminal of APP, and protein A/G resin overnight at 4° C. Immunoprecipitated APP was eluted from the protein AJG resin with 30 μl of elution buffer (10% beta-mercaptoethanol). The samples were loaded onto 10% trys-glycine 10 gels, and the proteins were separated at 150 V for 90 min. The gels were fixed and dried at 80° C. for 60 min. The dried gels were exposed to Phosphor Screen (PACKARD Instrument Company, Inc., Meriden, Conn.) overnight and the βAPP signals were quantitated on a phosphor imager. […]

Q: How did the “reduction of βAPP levels in CSF” value (βAPP) turn out when CN1CC[C@@]2(C)c3cc(OC(=O)Nc4ccccc4)ccc3N(C)[C@@H]12 [(−)-phenserine] was run?
A: 55%

Q: What about the “reduction of βAPP synthesis” value (APP) of the same molecule?
A: 52%

Source: patent US8691864B2, “Agents useful for reducing amyloid precursor protein and treating dementia and methods of use thereof” (priority 2000, dated 2014)
